Data published in article PMC8468449 (2021).

What was measured:
[1] = test system: 27-mer adenosine aptamer (DNA, aptamer) ACCTGGGGGAGTATTGCGGAGGAAGGT; experiment: CNT FET aptasensor, Hill-Langmuir fit; conditions: no added salt stated; 2 mM Tris-HCl, pH 7.4; Hill n 0.6 ± 0.08; immobilised aptamer
[2] = test system: 35-mer adenosine aptamer (DNA, aptamer) AAAAAAAAAACCTGGGGGAGTATTGCGGAGGAAGG; experiment: CNT FET aptasensor, Hill-Langmuir fit; conditions: no added salt stated; 2 mM Tris-HCl, pH 7.4; Hill n 0.2 ± 0.03; immobilised aptamer

## Nc1ncnc2c1ncn2[C@@H]1O[C@H](CO)[C@@H](O)[C@H]1O
[1]
  Kd: (1.6 ± 1.4) × 10^−7 M
[2]
  Kd: (1.2 ± 1.08) × 10^−9 M
